The text below walks through data of US6277854A, “Tricyclic antitumor farnesyl protein transferase inhibitors” (Schering Corporation, priority 1999, dated 2001).

pIC50: −log10 of the molar value.

By pIC50 is commonly meant the negative decadic logarithm of the IC50, by convention in mol/L.

The target in experiment [1] is farnesyl protein transferase. The experiment in a line: In vitro enzyme assay: inhibition of farnesyl protein transferase (FPT), [3H]farnesyl transfer to Ras-CVLS. In kind it is biochemical, rat (brain); human (expressed in E. coli). An excerpt: 1. In vitro enzyme assays: Inhibition of famesyl protein transferase and geranylgeranyl protein transferase.
Farnesyl protein transferase (FPT) was partially purified from rat brain by ammonium sulfate fractionation followed by Q-Sepharose (Pharmacia, Inc.) anion exchange chromatography essentially as described by Yokoyama et al (Yokoyama, K., et al., (1991), A protein geranylgeranyltransferase from bovine brain: Implications for protein prenylation specificity, Proc. Natl. Acad. Sci USA 88: 5302-5306, the disclosure of which is incorporated herein by reference thereto). Human famesyl protein transferase was also expressed in E. coli, using cDNA clones encoding both the a and b subunits. The methods used were similar to those published (Omer, C. et al., (1993), Characterization of recombinant human famesyl protein transferase: Cloning, expression, farnesyl diphosphate binding, and functional homology with yeast prenyl-protein transferases, Biochemistry 32:5167-5176). Human famesyl protein transferase was partially-purified from the soluble protein fraction of E. coli as described above. […] Two forms of val^12 -Ha-Ras protein were prepared as substrates for these enzymes, differing in their carboxy terminal sequence. One form terminated in cysteine-valine-leucine-serine (Ras-CVLS) the other in cystein-valine-leucine-leucine (Ras-CVLL). Ras-CVLS is a substrate for the famesyl protein transferase while Ras-CVLL is a substrate for geranylgeranyl protein transferase I. The cDNAs encoding these proteins were constructed so that the proteins contain an amino-terminal extension of 6 histidine residues. Both proteins were expressed in Escherichia coli and purified using metal chelate affinity chromatography. The radiolabelled isoprenyl pyrophosphate substrates, [^3 H]farnesyl pyrophosphate and [^3 H]geranylgeranyl pyrophosphate, were purchased from DuPon/New England Nuclear.
Several methods for measuring farnesyl protein transferase activity have been described (Reiss et al 1990, Cell 62: 81; Schaber et al 1990, J. Biol. Chem. 265: 14701; Manne et al 1990, PNAS 87: 7541; and Barbacid & Manne 1993, U.S. Pat. No. 5,185,248). […] The reaction was allowed to proceed for 30 minutes at room temperature and then stopped with 0.5 ml of 4% sodium dodecyl sulfate (SDS) followed by 0.5 ml of cold 30% TCA. Samples were allowed to sit on ice for 45 minutes and precipitated Ras protein was then collected on GF/C filter paper mats using a Brandel cell harvester. Filter mats were washed once with 6% TCA, 2% SDS and radioactivity was measured in a Wallac 1204 Betaplate BS liquid scintillation counter. Percent inhibition was calculated relative to the DMSO vehicle control.

Experiment [2] concerns Ras processing (val12-Ha-Ras-CVLS) in COS monkey kidney cells. Description: Cell-based assay: inhibition of Ras processing in COS cells (transient expression of val12-Ha-Ras-CVLS). As to conditions: Primates. On the procedure:
Following electroporation, cells were plated into 6-well tissue culture dishes containing 1.5 ml of Dulbecco's-modified Eagle's media (GIBCO, Inc.) supplemented with 10% fetal calf serum and the appropriate farnesyl protein transferase inhibitors. After 24 hours, media was removed and fresh media containing the appropriate drugs was re-added.
48 hours after electroporation cells were examined under the microscope to monitor disordered cell growth induced by transforming Ras. Cells expressing transforming Ras become more rounded and refractile and overgrow the monolayer, reminiscent of the transformed phenotype. Cells were then photographed, washed twice with 1 ml of cold phosphate-buffered saline (PBS) and removed from the dish by scraping with a rubber policeman into 1 ml of a buffer containing 25 mM Tris, pH 8.0; 1 mM ethylenediamine tetraacetic acid; 1 mM phenylmethylsulfonyl fluoride; […]; and 0.1 mM pepstatin. Cells were lysed by homogenization and cell debris was removed by centrifugation at 2000×g for 10 min.
Cellular protein was precipitated by addition of ice-cold trichloroacetic acid and redissolved in […] of SDS-electrophoresis sample buffer. […] Proteins resolved on the gels were electroblotted onto nitrocellulose membranes for immunodetection.
After washing, membranes were incubated for one hour at room temperature with a 1:5000 dilution of secondary antibody, rabbit anti-rat IgG conjugated to horseradish peroxidase, in PBS containing 1% fetal calf serum. The presence of processed and unprocessed Ras-CVLS or Ras-CVLL was detected using a colorimetric peroxidase reagent (4-chloro-1-naphthol) as described by the manufacturer (Bio-Rad).

Consider `CN(C)CCCC(=O)N1CCC(C2c3ncc(Br)cc3CCc3cc(Cl)cc(Cl)c32)CC1` (single isomer, unassigned) [Example 6], for which the pIC50 is 8.19 in experiment [1] and 7.46 in experiment [2].
In the case of `NC(=O)CC(=O)N1CCC([C@H]2c3ncc(Br)cc3CCc3cc(Cl)cc(Br)c32)CC1` [Example 47, 4-(3,10-DIBROMO-8-CHLORO-6,11-DIHYDRO-5H-BENZO[5,6]CYCLO-HEPTA[1,2-b]PYRIDIN-11(R)-YL)-BETA-OXO -1-PIPERIDININE PROPANAMIDE], the pIC50 in experiment [1] was 7.17.
The same measure, in the same setting: the result for `COC(=O)CCC(=O)N1CCC([C@H]2c3ncc(Br)cc3CCc3cc(Cl)cc(Br)c32)CC1` [Example 48, (+)-METHYL 4-(3,10-DIBROMO-8-CHLORO-6,11-DIHYDRO-5H-BENZO[5,6]CYCLO-HEPTA[1,2-b]PYRIDIN-11(R)-YL)-GAMMA-OXO -1-PIPERIDININE BUTANOATE] reads 8.05.
`O=C(O)CCC(=O)N1CCC([C@H]2c3ncc(Br)cc3CCc3cc(Cl)cc(Br)c32)CC1` [Example 49, (+)-SODIUM 4-(3,10-DIBROMO-B-CHLORO-6,11-DIHYDRO-5H-BENZO[5,6]CYCLO-HEPTA[1,2-b]PYRIDIN-11(R)-YL)-GAMMA-OXO-1-PIPERIDININE BUTANOATE] showed a pIC50 in experiment [1] of 6.57.
Same read-out and setting: the figure for `NC(=O)CCC(=O)N1CCC([C@H]2c3ncc(Br)cc3CCc3cc(Cl)cc(Br)c32)CC1` [Example 50, (+)-4-(3,10-DIBROMO-8-CHLORO-6,11-DIHYDRO-5H-BENZO[5,6]CYCLO-HEPTA[1,2-b]PYRIDIN-11(R)-YL)-GAMMA-OXO -1-PIPERIDININE BUTANAMIDE] is 7.85; for `COC(=O)CCCC(=O)N1CCC([C@H]2c3ncc(Br)cc3CCc3cc(Cl)cc(Br)c32)CC1` [Example 51, (+)-METHYL 4-(3,10-DIBROMO-8-CHLORO-6,11-DIHYDRO-5H-BENZO[5,6]CYCLO-HEPTA[1,2-b]PYRIDIN-11 (R)-YL)-DELTA-OXO-1-PIPERIDININE PENTANOATE] it is 7.72; for `O=C(O)CCCC(=O)N1CCC([C@H]2c3ncc(Br)cc3CCc3cc(Cl)cc(Br)c32)CC1` [Example 52, (+)-SODIUM 4-(3,10-DIBROMO-8-CHLORO-6,11-DIHYDRO-5H-BENZO[5,6]CYCLO-HEPTA[1,2-b]PYRIDIN-11(R)-YL)-DELTA-OXO-1-PIPERIDININE PENTANOATE] it is 7.36.
Still for that read-out and setting: the figure for `NC(=O)CCCC(=O)N1CCC([C@H]2c3ncc(Br)cc3CCc3cc(Cl)cc(Br)c32)CC1` [Example 53, (+)-4-(3,10-DIBROMO-8-CHLORO-6,11-DIHYDRO-5H-BENZO[5,6]CYCLO-HEPTA[1,2-b]PYRIDIN-11(R)-YL)-DELTA-OXO-1-PIPERIDININE PENTANAMIDE] is 8.00; for `COC(=O)CCCCC(=O)N1CCC([C@H]2c3ncc(Br)cc3CCc3cc(Cl)cc(Br)c32)CC1` [Example 54, (+)-METHYL 4-(3,10-DIBROMO-8-CHLORO-6,11-DIHYDRO-5H-BENZO[5,6]CYCLO-HEPTA[1,2-b]PYRIDIN-11(R)-YL)-EPSILON-OXO-1-PIPERIDININE HEXANOATE] it is 7.82; for `O=C(O)CCCCC(=O)N1CCC([C@H]2c3ncc(Br)cc3CCc3cc(Cl)cc(Br)c32)CC1` [Example 55, (+)-SODIUM 4-(3,10-DIBROMO-8-CHLORO-6,11-DIHYDRO-5H-BENZO[5,6]CYCLO-HEPTA[1,2-b]PYRIDIN-11(R)-YL)-EPSILON-OXO-1-PIPERIDININE HEXANOATE] it is 7.77.
Still for that read-out and setting: the result for `NC(=O)CCCCC(=O)N1CCC([C@H]2c3ncc(Br)cc3CCc3cc(Cl)cc(Br)c32)CC1` [Example 56, (+)-4-(3,10-DIBROMO-8-CHLORO-6,11-DIHYDRO-5H-BENZO[5,6]CYCLO-HEPTA[1,2-b]PYRIDIN-11(R)-YL)-EPSILON-OXO-1-PIPERIDININE HEXANAMIDE] reads 8.15.
As to `COC(=O)CCCCCC(=O)N1CCC([C@H]2c3ncc(Br)cc3CCc3cc(Cl)cc(Br)c32)CC1` [Example 57, (+)-METHYL 4-(3,10-DIBROMO-8-CHLORO-6,11-DIHYDRO-5H-BENZO[5,6]CYCLO-HEPTA[1,2-b]PYRIDIN-11(R)-YL)-OMEGA-OXO-1-PIPERIDININE HEPTANOATE], the pIC50 in experiment [1] is 7.96.
Regarding `O=C(O)CCCCCC(=O)N1CCC([C@H]2c3ncc(Br)cc3CCc3cc(Cl)cc(Br)c32)CC1` [Example 58, (+)-SODIUM 4-(3,10-DIBROMO-8-CHLORO-6,11-DIHYDRO-5H-BENZO[5,6]CYCLO-HEPTA[1,2-b]PYRIDIN-11 (R)-YL)-OMEGA-OXO-1-PIPERIDININE HEPTANOATE], the results for the pIC50 in experiment [1] and in experiment [2] were 8.04 and 6.52, respectively.
As to `NC(=O)CCCCCC(=O)N1CCC([C@H]2c3ncc(Br)cc3CCc3cc(Cl)cc(Br)c32)CC1` [Example 59, (+)-4-(3,10-DIBROMO-8-CHLORO-6,11-DIHYDRO-5H-BENZO[5,6]CYCLO-HEPTA[1,2-b]PYRIDIN-11(R)-YL)-OMEGA-OXO-1-PIPERIDININE HEPTANAMIDE], the pIC50 in experiment [1] is 8.48; in experiment [2] it was 7.82.
